Tested on: not listed separately
Test: Displacement of [3H]-citalopram from gerbil SERT expressed in HEK293 cell membranes incubated for 60 mins by liquid scintillation counting method
Set-up: species or system Gerbillinae
Conditions: not given

Structure (SMILES)	IC50 [nM]
N#Cc1ccc(-c2cc(COCC3(c4ccccc4)CCNCC3)cc(C(F)(F)F)c2)cn1	10
FC(F)(F)c1cc(COCC2(c3ccccc3)CCNCC2)cc(-c2ccccc2)c1	3.7
N#Cc1ccc(-c2cc(COCC3(c4ccccc4)CCN(C4CC4)CC3)cc(C(F)(F)F)c2)cc1	2100
FC(F)(F)c1cc(COCC2(c3ccccc3)CCNCC2)cc(-c2ccncc2)c1	16
COc1ccc(-n2nnnc2C)cc1COCC1(c2ccccc2)CCNCC1	37
Fc1ccc(-c2cc(COCC3(c4ccccc4)CCNCC3)cc(C(F)(F)F)c2)cc1	1.5
FC(F)(F)c1cc(COCC2(c3ccccc3)CCNCC2)cc(-c2ccc(Cl)cc2)c1	1.8
FC(F)(F)c1cc(COCC2(c3ccccc3)CCNCC2)cc(-c2ccccn2)c1	7.4
N#Cc1cccc(-c2cc(COCC3(c4ccccc4)CCNCC3)cc(C(F)(F)F)c2)c1	10
FC(F)(F)c1cc(COCC2(c3ccccc3)CCNCC2)cc(-c2ccc3ccccc3c2)c1	110
CN(C)c1ccc(-c2cc(COCC3(c4ccccc4)CCNCC3)cc(C(F)(F)F)c2)cc1	3.5
Cc1ccccc1-c1cc(COCC2(c3ccccc3)CCNCC2)cc(C(F)(F)F)c1	13
FC(F)(F)c1cc(COCC2(c3ccccc3)CCNCC2)cc(-c2nccs2)c1	4.1
CCOc1ccc(-c2cc(COCC3(c4ccccc4)CCNCC3)cc(C(F)(F)F)c2)cc1	14
Cc1cccc(-c2cc(COCC3(c4ccccc4)CCNCC3)cc(C(F)(F)F)c2)c1	14
N#Cc1cc(F)c(-c2cc(COCC3(c4ccccc4)CCNCC3)cc(C(F)(F)F)c2)cc1F	3.7

The next lines start with the values.

IC50 [nM]	Structure (SMILES)
4.2	COc1ccccc1-c1cc(COCC2(c3ccccc3)CCNCC2)cc(C(F)(F)F)c1
18	FC(F)(F)c1cc(COCC2(c3ccccc3)CCNCC2)cc(-c2ccco2)c1
27	Oc1cccc(-c2cc(COCC3(c4ccccc4)CCNCC3)cc(C(F)(F)F)c2)c1
6.4	Cc1ccc(-c2cc(COCC3(c4ccccc4)CCNCC3)cc(C(F)(F)F)c2)cc1
6.3	Fc1cccc(-c2cc(COCC3(c4ccccc4)CCNCC3)cc(C(F)(F)F)c2)c1
15	COc1ccc(-c2cc(COCC3(c4ccccc4)CCNCC3)cc(C(F)(F)F)c2)cc1
7	N#Cc1c(F)cc(-c2cc(COCC3(c4ccccc4)CCNCC3)cc(C(F)(F)F)c2)cc1F

Tested on: HEK293
Test: Selectivity index, ratio of IC50 for gerbil SERT expressed in HEK293 cell membranes to IC50 for gerbil NK1 receptor expressed in HEK293 cell membranes
Assay type: cell-based
Conditions: Gerbillinae

Structure (SMILES)	Ratio IC50
N#Cc1ccc(-c2cc(COCC3(c4ccccc4)CCNCC3)cc(C(F)(F)F)c2)cn1	5
FC(F)(F)c1cc(COCC2(c3ccccc3)CCNCC2)cc(-c2ccccc2)c1	0.6
FC(F)(F)c1cc(COCC2(c3ccccc3)CCNCC2)cc(-c2ccco2)c1	0.4
N#Cc1ccc(-c2cc(COCC3(c4ccccc4)CCN(C4CC4)CC3)cc(C(F)(F)F)c2)cc1	1200
FC(F)(F)c1cc(COCC2(c3ccccc3)CCNCC2)cc(-c2ccncc2)c1	10
COc1ccc(-n2nnnc2C)cc1COCC1(c2ccccc2)CCNCC1	0.4
Fc1ccc(-c2cc(COCC3(c4ccccc4)CCNCC3)cc(C(F)(F)F)c2)cc1	0.7
COc1ccccc1-c1cc(COCC2(c3ccccc3)CCNCC2)cc(C(F)(F)F)c1	0.1
FC(F)(F)c1cc(COCC2(c3ccccc3)CCNCC2)cc(-c2ccc(Cl)cc2)c1	0.6
FC(F)(F)c1cc(COCC2(c3ccccc3)CCNCC2)cc(-c2ccccn2)c1	0.2
N#Cc1cccc(-c2cc(COCC3(c4ccccc4)CCNCC3)cc(C(F)(F)F)c2)c1	0.2
N#Cc1c(F)cc(-c2cc(COCC3(c4ccccc4)CCNCC3)cc(C(F)(F)F)c2)cc1F	22
FC(F)(F)c1cc(COCC2(c3ccccc3)CCNCC2)cc(-c2ccc3ccccc3c2)c1	0.9
Oc1cccc(-c2cc(COCC3(c4ccccc4)CCNCC3)cc(C(F)(F)F)c2)c1	2
CN(C)c1ccc(-c2cc(COCC3(c4ccccc4)CCNCC3)cc(C(F)(F)F)c2)cc1	0.2
Cc1ccccc1-c1cc(COCC2(c3ccccc3)CCNCC2)cc(C(F)(F)F)c1	0.1
FC(F)(F)c1cc(COCC2(c3ccccc3)CCNCC2)cc(-c2nccs2)c1	0.06
Fc1cccc(-c2cc(COCC3(c4ccccc4)CCNCC3)cc(C(F)(F)F)c2)c1	1
CCOc1ccc(-c2cc(COCC3(c4ccccc4)CCNCC3)cc(C(F)(F)F)c2)cc1	4
Cc1ccc(-c2cc(COCC3(c4ccccc4)CCNCC3)cc(C(F)(F)F)c2)cc1	0.8
COc1ccc(-c2cc(COCC3(c4ccccc4)CCNCC3)cc(C(F)(F)F)c2)cc1	16
Cc1cccc(-c2cc(COCC3(c4ccccc4)CCNCC3)cc(C(F)(F)F)c2)c1	0.6
N#Cc1cc(F)c(-c2cc(COCC3(c4ccccc4)CCNCC3)cc(C(F)(F)F)c2)cc1F	4

Target: Substance-P receptor (Meriones unguiculatus, UniProt Q5DUB1)
Test: Displacement of [125I]-substance P from gerbil NK1 receptor expressed in HEK293 cell membranes incubated for 30 mins by liquid scintillation counting method
Set-up: species or system Gerbillinae
Conditions: not given

Substance-P receptor, sequence (Q5DUB1 whole entry): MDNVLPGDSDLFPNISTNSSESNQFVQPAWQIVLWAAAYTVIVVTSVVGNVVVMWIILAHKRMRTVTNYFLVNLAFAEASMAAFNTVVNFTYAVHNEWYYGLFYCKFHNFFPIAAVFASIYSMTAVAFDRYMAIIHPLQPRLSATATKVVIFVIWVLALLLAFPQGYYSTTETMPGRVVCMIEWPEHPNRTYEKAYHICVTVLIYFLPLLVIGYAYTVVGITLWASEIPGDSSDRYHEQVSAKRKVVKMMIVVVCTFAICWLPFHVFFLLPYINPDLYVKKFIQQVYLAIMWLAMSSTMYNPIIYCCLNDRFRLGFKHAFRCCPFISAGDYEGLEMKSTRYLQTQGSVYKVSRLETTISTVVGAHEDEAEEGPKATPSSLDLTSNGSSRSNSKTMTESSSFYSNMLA

Structure (SMILES)	IC50 [nM]
C[C@@H](O[C@H]1OCCN(Cc2n[nH]c(=O)[nH]2)[C@H]1c1ccc(F)cc1)c1cc(C(F)(F)F)cc(C(F)(F)F)c1 [APREPITANT]	0.09
N#Cc1ccc(-c2cc(COCC3(c4ccccc4)CCNCC3)cc(C(F)(F)F)c2)cn1	1.9
FC(F)(F)c1cc(COCC2(c3ccccc3)CCNCC2)cc(-c2ccccc2)c1	6.3
N#Cc1ccc(-c2cc(COCC3(c4ccccc4)CCN(C4CC4)CC3)cc(C(F)(F)F)c2)cc1	1.8
FC(F)(F)c1cc(COCC2(c3ccccc3)CCNCC2)cc(-c2ccncc2)c1	1.6
COc1ccc(-n2nnnc2C)cc1COCC1(c2ccccc2)CCNCC1	87
Fc1ccc(-c2cc(COCC3(c4ccccc4)CCNCC3)cc(C(F)(F)F)c2)cc1	2.2
FC(F)(F)c1cc(COCC2(c3ccccc3)CCNCC2)cc(-c2ccc(Cl)cc2)c1	2.8
FC(F)(F)c1cc(COCC2(c3ccccc3)CCNCC2)cc(-c2ccccn2)c1	41
N#Cc1cccc(-c2cc(COCC3(c4ccccc4)CCNCC3)cc(C(F)(F)F)c2)c1	49
FC(F)(F)c1cc(COCC2(c3ccccc3)CCNCC2)cc(-c2ccc3ccccc3c2)c1	120
CN(C)c1ccc(-c2cc(COCC3(c4ccccc4)CCNCC3)cc(C(F)(F)F)c2)cc1	18
Cc1ccccc1-c1cc(COCC2(c3ccccc3)CCNCC2)cc(C(F)(F)F)c1	130
FC(F)(F)c1cc(COCC2(c3ccccc3)CCNCC2)cc(-c2nccs2)c1	70
CCOc1ccc(-c2cc(COCC3(c4ccccc4)CCNCC3)cc(C(F)(F)F)c2)cc1	3.4
COc1ccc(-n2nnnc2C(F)(F)F)cc1CO[C@H]1CCCN[C@H]1c1ccccc1	0.03
Cc1cccc(-c2cc(COCC3(c4ccccc4)CCNCC3)cc(C(F)(F)F)c2)c1	24
N#Cc1cc(F)c(-c2cc(COCC3(c4ccccc4)CCNCC3)cc(C(F)(F)F)c2)cc1F	0.91

The remaining molecules from weak to strong by IC50, led by results:

IC50 [nM]	Structure (SMILES)
54	COc1ccccc1-c1cc(COCC2(c3ccccc3)CCNCC2)cc(C(F)(F)F)c1
47	FC(F)(F)c1cc(COCC2(c3ccccc3)CCNCC2)cc(-c2ccco2)c1
13	Oc1cccc(-c2cc(COCC3(c4ccccc4)CCNCC3)cc(C(F)(F)F)c2)c1
8.4	Cc1ccc(-c2cc(COCC3(c4ccccc4)CCNCC3)cc(C(F)(F)F)c2)cc1
5	Fc1cccc(-c2cc(COCC3(c4ccccc4)CCNCC3)cc(C(F)(F)F)c2)c1
0.93	COc1ccc(-c2cc(COCC3(c4ccccc4)CCNCC3)cc(C(F)(F)F)c2)cc1
0.32	N#Cc1c(F)cc(-c2cc(COCC3(c4ccccc4)CCNCC3)cc(C(F)(F)F)c2)cc1F
0.05	COc1ccc(-n2cnnn2)cc1CO[C@H]1CCCN[C@H]1c1ccccc1
0.05	COc1ccc(-n2nnnc2C)cc1CO[C@H]1CCCN[C@H]1c1ccccc1
